Earlier results in patent publication US9949941B2, “GABA analog prodrug sustained release oral dosage forms” (XENOPORT, INC., priority 2004, dated 2018).

Key:
[1] = dosed either orally or directly into the colon of a mammal

SMILES | Tmax following administration of gabapentin alone (fasted and fed patients) [h] | typical Tmax of immediate release gabapentin (immediate release gabapentin) [h] | bioavailability as gabapentin [1]
NCC1(CC(=O)O)CCCCC1 [gabapentin] | 2 to 4 | 2 to 4 | –
CC(OC(=O)NCC1(CC(=O)O)CCCCC1)OC(=O)C(C)C (stereo not drawn) [Compound (1), 1-{[(α-isobutanoyloxyethoxy)carbonyl]aminomethyl}-1-cyclohexane acetic acid] | – | – | high bioavailability
